Results: patent US8940742B2, “Heterocyclic compounds and uses thereof” (Infinity Pharmaceuticals, Inc., priority 2012, dated 2015)
pIC50: −log10 of the molar value.

How the values were obtained:
Raw264.7 p110 γ = target: T1, Raw264.7 p110 γ (Mus musculus, UniProt Q9JHG7); experiment: Raw264.7 p110 γ cellular assay (phospho-AKT); format: cell-based; settings: serum-starved RAW264.7 cells stimulated with C5a
T1 construct: reduction of phospho-AKT in stimulated RAW 264.7 cells; endogenous in cells; host or cells: RAW264.7 macrophages
Text: (b) PI3K-γ Selective Assay
Briefly, serum-starved PAW264.7 cells are stimulated with a known GPCR agonist C5a. […] Cells can be treated with test compounds prior to, simultaneously with, or subsequent to the stimulation by C5a. RAW 264.7 cells respond to the complement component fragment C5a through activation of the C5a receptor, and the C5a receptor activates macrophages and induces cell migration.

PI3K β = target: T2, PI3K β (Homo sapiens, UniProt P42338); experiment: PI3-Kinase Promega ADP-Glo Max assay; format: biochemical; settings: 40 nM kinase, 3 mM ATP, 500 uM diC8-PtdInsP
T2 construct: purchased Millipore
Method: (§1) Promega ADP-Glo Max assay kit (Cat. No. V7002) was utilized to determine IC50 values for α, β, δ and γ isoforms of human Class I PI3 kinases (Millipore). Samples of kinase (20 nM α or δ, 40 nM β or γ isoform) were incubated with compound for 15 minutes at room temperature in reaction buffer (15 mM HEPES pH 7.4, 20 mM NaCl, 1 mM EGTA, 0.02% Tween 20, 10 mM MgCl2, 0.2 mg/mL bovine-γ-globulins) followed by addition of ATP/diC8-PtdInsP mixture to give final concentrations of 3 mM ATP and 500 uM diC8-PtdInsP. Reactions were incubated at room temperature for 2 hours followed by addition of 25 uL of stop solution. After a 40-minute incubation at room temperature, 50 uL of Promega detection mix was added followed by incubation for 1 hour at room temperature. Plates were then read on Envision plate reader in luminescence mode. Data was converted to % inhibition using the following equation below:
(§2) [formula] where S is the sample luminescence, Pos is a positive control without added PI3K, Neg is the negative control without added compound. Data was then plotted as % inhibition vs compound concentration. Data fit to 4 parameter logistic equation to determine IC50 values: […]
(§3) Certain compounds provided herein were tested in PI3-Kinase Promega Assay using procedures as described above to determine IC50 values for α, β, δ and/or γ isoforms.

PI3K δ = target: T3, PI3K δ (Homo sapiens, UniProt O00329); experiment: PI3-Kinase Promega ADP-Glo Max assay; format: biochemical; settings: 20 nM kinase, 3 mM ATP, 500 uM diC8-PtdInsP
T3 construct: purchased Millipore
Method: as §1, §2, §3

RAJI p110 δ = RAJI p110 δ (Homo sapiens, UniProt O00329); experiment: RAJI p110 δ cellular assay (phospho-AKT);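 further: potency based on lowered phosphorylated AKT in RAJI cells, as a readout of PI3K-δ dependent B-cell receptor signaling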
Text: (a) PI3K-δ Selective Assay
Reduction of phospho-AKT is indicative of compounds that may inhibit B-cell proliferation and function in certain diseases.

PI3K γ = target: T4, PI3K γ (Homo sapiens, UniProt P48736); experiment: PI3-Kinase Promega ADP-Glo Max assay; format: biochemical; settings: 40 nM kinase, 3 mM ATP, 500 uM diC8-PtdInsP
T4 construct: purchased Millipore
Method: Promega ADP-Glo Max assay kit (Cat. No. V7002) was utilized to determine IC50 values for α, β, δ and γ isoforms of human Class I PI3 kinases (Millipore). […] Reactions were incubated at room temperature for 2 hours followed by addition of 25 uL of stop solution. After a 40-minute incubation at room temperature, 50 uL of Promega detection mix was added followed by incubation for 1 hour at room temperature. Plates were then read on Envision plate reader in luminescence mode. Data was converted to % inhibition using the following equation below:
[formula] where S is the sample luminescence, Pos is a positive control without added PI3K, Neg is the negative control without added compound. Data was then plotted as % inhibition vs compound concentration.
as §3

PI3K α = target: T5, PI3K α (Homo sapiens, UniProt P42336); experiment: PI3-Kinase Promega ADP-Glo Max assay; format: biochemical; settings: 20 nM kinase, 3 mM ATP, 500 uM diC8-PtdInsP
T5 construct: purchased Millipore
Method: as §1, §2, §3

T1 sequence (Q9JHG7 whole entry): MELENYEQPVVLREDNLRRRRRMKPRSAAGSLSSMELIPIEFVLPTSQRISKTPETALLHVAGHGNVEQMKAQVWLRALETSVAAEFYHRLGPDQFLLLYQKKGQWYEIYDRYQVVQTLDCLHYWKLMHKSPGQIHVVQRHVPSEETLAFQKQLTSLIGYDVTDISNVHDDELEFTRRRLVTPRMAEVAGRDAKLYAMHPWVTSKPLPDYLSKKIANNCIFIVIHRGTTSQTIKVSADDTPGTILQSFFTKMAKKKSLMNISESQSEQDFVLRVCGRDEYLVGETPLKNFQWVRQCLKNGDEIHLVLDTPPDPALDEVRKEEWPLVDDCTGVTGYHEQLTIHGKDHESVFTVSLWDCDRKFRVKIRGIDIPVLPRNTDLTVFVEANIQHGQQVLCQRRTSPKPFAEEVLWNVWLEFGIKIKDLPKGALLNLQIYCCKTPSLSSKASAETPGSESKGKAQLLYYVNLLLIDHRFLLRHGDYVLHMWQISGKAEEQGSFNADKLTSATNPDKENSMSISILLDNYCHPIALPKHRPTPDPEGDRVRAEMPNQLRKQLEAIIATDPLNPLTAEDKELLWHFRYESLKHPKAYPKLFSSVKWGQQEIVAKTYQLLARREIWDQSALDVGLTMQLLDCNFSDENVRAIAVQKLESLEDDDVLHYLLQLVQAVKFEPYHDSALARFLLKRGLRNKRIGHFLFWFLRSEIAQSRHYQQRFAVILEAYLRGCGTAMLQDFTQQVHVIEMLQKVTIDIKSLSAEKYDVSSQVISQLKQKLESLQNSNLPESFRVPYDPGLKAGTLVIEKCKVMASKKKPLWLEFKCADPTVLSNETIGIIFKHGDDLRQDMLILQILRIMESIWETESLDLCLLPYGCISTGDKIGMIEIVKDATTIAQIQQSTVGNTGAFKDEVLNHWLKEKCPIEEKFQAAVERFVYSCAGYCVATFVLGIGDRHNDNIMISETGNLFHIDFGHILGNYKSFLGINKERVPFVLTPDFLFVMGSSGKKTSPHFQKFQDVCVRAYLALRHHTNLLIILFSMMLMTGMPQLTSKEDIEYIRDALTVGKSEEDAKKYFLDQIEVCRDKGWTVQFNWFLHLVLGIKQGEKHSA
T5 sequence (P42336 whole entry): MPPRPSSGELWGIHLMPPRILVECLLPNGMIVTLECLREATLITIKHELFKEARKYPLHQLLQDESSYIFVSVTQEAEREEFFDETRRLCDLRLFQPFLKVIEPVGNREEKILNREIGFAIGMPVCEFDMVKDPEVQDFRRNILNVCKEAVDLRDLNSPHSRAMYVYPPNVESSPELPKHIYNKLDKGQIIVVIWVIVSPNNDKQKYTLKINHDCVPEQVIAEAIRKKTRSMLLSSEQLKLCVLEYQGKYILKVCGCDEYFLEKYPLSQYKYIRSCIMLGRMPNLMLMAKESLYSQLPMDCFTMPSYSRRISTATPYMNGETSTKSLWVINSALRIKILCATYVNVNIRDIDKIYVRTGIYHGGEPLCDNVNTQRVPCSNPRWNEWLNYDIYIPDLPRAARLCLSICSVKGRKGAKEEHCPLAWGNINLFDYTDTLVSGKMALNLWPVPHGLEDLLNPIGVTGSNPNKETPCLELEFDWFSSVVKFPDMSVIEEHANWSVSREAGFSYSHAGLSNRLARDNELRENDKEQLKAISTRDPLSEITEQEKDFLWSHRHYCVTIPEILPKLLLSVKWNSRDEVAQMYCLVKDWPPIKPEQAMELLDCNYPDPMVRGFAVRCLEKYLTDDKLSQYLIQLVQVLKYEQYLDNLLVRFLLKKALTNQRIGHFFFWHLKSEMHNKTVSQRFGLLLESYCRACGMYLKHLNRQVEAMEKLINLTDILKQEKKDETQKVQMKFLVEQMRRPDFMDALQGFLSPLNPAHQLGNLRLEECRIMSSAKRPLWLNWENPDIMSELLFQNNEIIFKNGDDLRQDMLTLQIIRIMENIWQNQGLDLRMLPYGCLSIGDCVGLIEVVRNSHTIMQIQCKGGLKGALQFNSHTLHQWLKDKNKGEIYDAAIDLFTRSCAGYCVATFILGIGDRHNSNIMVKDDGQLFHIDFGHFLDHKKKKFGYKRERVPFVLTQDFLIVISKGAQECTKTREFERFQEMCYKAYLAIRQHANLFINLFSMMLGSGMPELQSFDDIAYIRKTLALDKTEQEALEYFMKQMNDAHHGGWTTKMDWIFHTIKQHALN
T5 sequence (P27986 whole entry partner): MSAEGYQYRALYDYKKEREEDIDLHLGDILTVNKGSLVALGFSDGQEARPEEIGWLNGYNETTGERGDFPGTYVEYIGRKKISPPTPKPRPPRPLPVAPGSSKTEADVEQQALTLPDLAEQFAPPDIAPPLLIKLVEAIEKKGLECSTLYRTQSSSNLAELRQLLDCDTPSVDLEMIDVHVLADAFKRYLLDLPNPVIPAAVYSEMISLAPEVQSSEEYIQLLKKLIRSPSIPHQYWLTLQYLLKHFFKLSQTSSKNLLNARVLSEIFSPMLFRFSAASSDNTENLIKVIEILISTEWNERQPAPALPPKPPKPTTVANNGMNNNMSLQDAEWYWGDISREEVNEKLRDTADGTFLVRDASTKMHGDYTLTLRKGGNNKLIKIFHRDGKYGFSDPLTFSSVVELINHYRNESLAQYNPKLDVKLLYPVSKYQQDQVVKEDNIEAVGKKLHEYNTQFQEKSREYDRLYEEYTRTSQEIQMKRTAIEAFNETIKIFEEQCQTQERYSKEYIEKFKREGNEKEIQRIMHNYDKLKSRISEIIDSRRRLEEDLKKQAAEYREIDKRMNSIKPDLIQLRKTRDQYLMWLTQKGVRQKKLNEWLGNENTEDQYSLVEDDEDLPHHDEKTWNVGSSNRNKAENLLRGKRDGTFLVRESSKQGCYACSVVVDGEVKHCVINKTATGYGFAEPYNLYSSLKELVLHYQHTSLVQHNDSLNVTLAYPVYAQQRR
T2 sequence (P42338 whole entry): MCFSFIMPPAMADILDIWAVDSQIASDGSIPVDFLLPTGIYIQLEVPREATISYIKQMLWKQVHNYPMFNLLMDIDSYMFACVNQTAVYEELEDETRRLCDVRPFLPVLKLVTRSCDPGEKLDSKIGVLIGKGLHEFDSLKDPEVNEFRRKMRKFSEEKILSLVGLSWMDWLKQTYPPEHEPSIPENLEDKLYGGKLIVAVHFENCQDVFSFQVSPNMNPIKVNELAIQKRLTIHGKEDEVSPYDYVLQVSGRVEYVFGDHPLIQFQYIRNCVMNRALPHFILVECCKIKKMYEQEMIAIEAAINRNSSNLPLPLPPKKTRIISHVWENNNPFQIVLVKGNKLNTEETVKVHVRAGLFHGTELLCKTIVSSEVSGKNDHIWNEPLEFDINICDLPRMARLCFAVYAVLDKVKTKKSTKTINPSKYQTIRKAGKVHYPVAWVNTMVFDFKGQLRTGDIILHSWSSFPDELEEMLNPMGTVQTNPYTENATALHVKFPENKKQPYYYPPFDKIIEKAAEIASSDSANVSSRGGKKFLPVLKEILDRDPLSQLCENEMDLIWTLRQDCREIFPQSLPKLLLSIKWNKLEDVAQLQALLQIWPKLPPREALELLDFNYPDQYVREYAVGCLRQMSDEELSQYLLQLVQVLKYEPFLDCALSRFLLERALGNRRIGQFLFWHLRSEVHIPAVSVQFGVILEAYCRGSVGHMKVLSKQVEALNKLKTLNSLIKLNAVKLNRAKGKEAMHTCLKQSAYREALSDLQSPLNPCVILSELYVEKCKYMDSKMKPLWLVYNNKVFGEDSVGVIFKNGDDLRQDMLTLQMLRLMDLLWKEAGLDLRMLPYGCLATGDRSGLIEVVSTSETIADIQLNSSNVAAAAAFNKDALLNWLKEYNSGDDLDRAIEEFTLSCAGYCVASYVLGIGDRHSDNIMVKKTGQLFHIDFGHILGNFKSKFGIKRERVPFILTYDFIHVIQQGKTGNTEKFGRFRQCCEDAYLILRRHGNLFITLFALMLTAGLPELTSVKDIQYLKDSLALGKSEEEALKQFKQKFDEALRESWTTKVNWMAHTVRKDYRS
T2 sequence (P27986 whole entry partner): as the sequence (P27986 whole entry partner) above
T4 sequence (P48736 whole entry): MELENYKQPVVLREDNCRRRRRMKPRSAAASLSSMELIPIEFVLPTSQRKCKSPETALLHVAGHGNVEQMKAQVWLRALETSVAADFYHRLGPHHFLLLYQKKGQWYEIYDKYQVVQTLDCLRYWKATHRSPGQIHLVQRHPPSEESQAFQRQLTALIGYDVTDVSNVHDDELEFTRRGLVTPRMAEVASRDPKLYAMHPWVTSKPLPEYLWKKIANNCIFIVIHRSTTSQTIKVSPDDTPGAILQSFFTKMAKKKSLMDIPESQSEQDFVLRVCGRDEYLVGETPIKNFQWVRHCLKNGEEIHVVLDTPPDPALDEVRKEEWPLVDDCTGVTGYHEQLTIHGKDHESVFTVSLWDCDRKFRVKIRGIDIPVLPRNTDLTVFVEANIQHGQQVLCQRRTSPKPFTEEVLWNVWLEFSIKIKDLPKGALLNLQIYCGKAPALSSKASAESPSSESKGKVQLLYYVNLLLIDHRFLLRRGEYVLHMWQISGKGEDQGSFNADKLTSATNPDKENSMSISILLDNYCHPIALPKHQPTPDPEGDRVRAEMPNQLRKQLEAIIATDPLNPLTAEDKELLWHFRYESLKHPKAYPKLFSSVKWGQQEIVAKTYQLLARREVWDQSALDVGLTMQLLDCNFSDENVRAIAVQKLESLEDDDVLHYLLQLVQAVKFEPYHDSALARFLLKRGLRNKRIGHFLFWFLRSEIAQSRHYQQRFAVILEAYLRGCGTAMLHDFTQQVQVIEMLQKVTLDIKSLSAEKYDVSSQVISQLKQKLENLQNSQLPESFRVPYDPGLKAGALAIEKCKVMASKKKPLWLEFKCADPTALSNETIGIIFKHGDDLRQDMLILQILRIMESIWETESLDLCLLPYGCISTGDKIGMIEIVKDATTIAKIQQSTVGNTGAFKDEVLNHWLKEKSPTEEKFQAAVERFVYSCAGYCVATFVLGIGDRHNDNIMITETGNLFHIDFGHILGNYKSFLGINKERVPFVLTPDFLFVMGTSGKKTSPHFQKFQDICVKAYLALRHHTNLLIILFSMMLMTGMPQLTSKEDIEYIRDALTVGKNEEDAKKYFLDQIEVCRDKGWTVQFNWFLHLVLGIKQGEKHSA

SMILES | pIC50 (Raw264.7 p110 γ) | pIC50 (PI3K β) | pIC50 (PI3K δ) | pIC50 (RAJI p110 δ) | pIC50 (PI3K γ) | pIC50 (PI3K α)
C[C@H](NC(=O)c1cnc2cccnn12)c1cc2cccc(Cl)c2c(=O)n1-c1ccccc1 [Compound 13] | 6.00 to 7.00 | 5.00 to 6.00 | 6.00 to 7.00 | 6.00 to 7.00 | 5.00 to 6.00 | –
C[C@H](NC(=O)c1c(N)nn2cccnc12)c1cc2cccc(O)c2c(=O)n1-c1ccccc1 [Compound 132] | > 7.00 | 5.00 to 6.00 | < 5.00 | 6.00 to 7.00 | 5.00 to 6.00 | < 5.00
C[C@H](NC(=O)c1c(N)nn2cccnc12)c1cc2cccc(-c3cccs3)c2c(=O)n1-c1ccccc1 [Compound 271] | > 7.00 | 5.00 to 6.00 | 5.00 to 6.00 | 6.00 to 7.00 | 6.00 to 7.00 | 5.00 to 6.00
C[C@H](NC(=O)c1nccnc1N)c1cc2cccc(-c3cnn(C)c3)c2c(=O)n1-c1ccccc1 [Compound 54, (S)-3-amino-N-(1-(8-(1-methyl-1H-pyrazol-4-yl)-1-oxo-2-phenyl-1,2-dihydroisoquinolin-3-yl)ethyl)pyrazine-2-carboxamide] | 6.00 to 7.00 | < 5.00 | 5.00 to 6.00 | > 7.00 | 6.00 to 7.00 | < 5.00
C[C@H](NC(=O)c1nc(-c2ccccc2)cnc1N)c1cc2cccc(Cl)c2c(=O)n1-c1ccccc1 [Compound 42] | 5.00 to 6.00 | < 5.00 | < 5.00 | 6.00 to 7.00 | 5.00 to 6.00 | < 5.00
C=CC(=O)NCC#Cc1cccc2cc([C@H](C)NC(=O)c3c(N)nn4cccnc34)n(-c3ccccc3)c(=O)c12 [Compound 155] | > 7.00 | 5.00 to 6.00 | 6.00 to 7.00 | > 7.00 | > 7.00 | 5.00 to 6.00
C[C@H](NC(=O)c1nc(Br)cnc1N)c1cc2cccc(Cl)c2c(=O)n1-c1ccccc1 [Compound 15] | < 5.00 | – | – | – | – | –
C[C@H](NC(=O)c1nc(-c2cccc(S(C)(=O)=O)c2)cnc1N)c1cc2cccc(Cl)c2c(=O)n1-c1ccccc1 [Compound 84] | > 7.00 | 5.00 to 6.00 | 5.00 to 6.00 | 6.00 to 7.00 | 6.00 to 7.00 | –
C[C@H](NC(=O)c1cccnc1N)c1cc2cccc(Cl)c2c(=O)n1-c1ccccc1 [Compound 3] | 5.00 to 6.00 | – | – | – | – | –
C[C@H](NC(=O)c1cncc2cccnc12)c1cc2cccc(C(F)(F)F)c2c(=O)n1-c1ccccc1 [Compound 67] | > 7.00 | – | – | > 7.00 | – | –
C[C@H](NC(=O)c1csc2cccnc12)c1cc2cccc(Cl)c2c(=O)n1-c1ccccc1 [Compound 68] | 5.00 to 6.00 | – | – | 5.00 to 6.00 | – | –
C[C@H](NC(=O)c1cnccn1)c1cc2cccc(Cl)c2c(=O)n1-c1ccccc1 [Compound 14] | < 5.00 | – | – | – | – | –
C[C@H](NC(=O)c1c(N)nn2cccnc12)c1cc2cccc(Cl)c2c(=O)n1-c1ccccc1 [Compound 70] | – | 6.00 to 7.00 | 6.00 to 7.00 | > 7.00 | – | 5.00 to 6.00
CC(=O)Nc1ncc(-c2cccc(NS(C)(=O)=O)c2)nc1C(=O)N[C@@H](C)c1cc2cccc(Cl)c2c(=O)n1C [Compound 185] | – | < 5.00 | < 5.00 | – | < 5.00 | < 5.00
C[C@H](NC(=O)c1nc(-c2cncc(NS(C)(=O)=O)c2)cnc1N)c1cc2cccc(Cl)c2c(=O)n1C1CC1 [Compound 172] | – | > 7.00 | > 7.00 | – | > 7.00 | > 7.00
